{"source": "patent US5525626A", "about": "(priority 1989, dated 1996)", "key": {"[1]": {"system": "LNCap cells", "experiment": "cell growth in combination with testosterone", "type": "cell-based, human", "conditions": "FIG. 9"}, "[2]": {"system": "U 178 MG, TP 410 N, TP 242 MG, TP 336 MG and A 431 cells", "conditions": "coumarin in the corresponding concentrations", "procedure": "(§1) The neuroblastoma cell line and the three glioblastoma cell lines were cultivated in Ham's F10 medium enriched with 10% fetal calf serum (FCS) and the usual quantity of penicillin, streptomycin (Pen/Strep) and glutamine. The epidermoidal cell line was cultivated in modified Eagle's Medium (MEM), likewise enriched with 10% (FCS) and the usual quantity of glutamine and Pen/Strep.\nUntreated cells served as a control. Subsequently, the cells were incubated for 8 hours with ^3 H-thymidine. The radioactivity absorbed by the cells was measured in the usual way."}, "[3]": {"system": "malignant cell growth", "conditions": "cited from earlier work"}, "[4]": {"system": "U 178 MG, TP 410 N, TP 242 MG, TP 336 MG and A 431 cells", "experiment": "growth curves of five tumor cell lines, comparison with coumarin", "type": "cell-based, human", "conditions": "corresponding concentrations, up to 12 days", "procedure": "as §1\nIn each case 5×10^4 cells were plated out in T25 bottles, the untreated cells being incubated in analogous conditions as control. The cell count was microscopically determined after 3, 5, 7, 10 and 12 days."}, "[5]": {"system": "T4 lymphocytes", "conditions": "low concentrations; cited from earlier work"}}, "data": [{"smiles": "O=c1oc2ccccc2cc1O", "note": "[3-OH-1,2-BP, reference compound]", "values": [{"measurement": "effect on cell growth, comparison compound", "setting": "[1]", "result": "essentially ineffective"}]}, {"smiles": "O=c1ccc2ccccc2o1", "note": "[coumarin, 1,2-Benzopyrone, reference compound]", "values": [{"measurement": "difference from control in pre-trial", "setting": "[2]", "result": "no significant difference could be observed"}, {"measurement": "malignant cell growth", "setting": "[3]; cell cultures and animal experiments", "result": "inhibits malignant cell growth in cell cultures and in animal experiments"}, {"measurement": "side-effects in mammals", "setting": "[3]; compared with biological activity", "result": "side-effects in the case of mammals are to be disregarded compared with biological activity"}, {"measurement": "growth-inhibiting activity (growth curve) versus control", "setting": "[4]", "result": "no significant difference could be observed"}]}, {"smiles": "O=P1(N(CCCl)CCCl)NCCCO1", "note": "(stereo not drawn) [cyclophosphamide]", "values": [{"measurement": "biological activity of T4 lymphocytes", "setting": "[5]", "result": "inhibits the biological activity of T4 lymphocytes"}]}]}
